Reference: patent US8241872B2, “Microorganism producing cyclic compound” (Astellas Pharma Inc., priority 2008, dated 2012)
Non-standard residues stand in square brackets, D forms with d. Residues, ends and D or L forms follow the SMILES beside them. ξ: configuration not given here. ξOrn(N(OH)Ac) = CC(=O)N(O)CCCC(N)C(=O)O

Assays:
Experiment in all cases: Antifungal activity, broth microdilution method
Format in all cases: cell-based
[1] = test system: Aspergillus flavus ATCC9643
Experimental: (§1) Antifungal activities for test fungi shown in Table 15 was determined by a broth microdilution method (Hikaru Kume and Toshikazu Yamazaki, Clinical Microbiology, Vol. 21, No. 5, pp. 573-580, 1994).

[2] = test system: Candida glabrata FP1944
Experimental: as §1

[3] = test system: Aspergillus niger ATCC6275
Experimental: as §1

[4] = test system: Candida krusei FP1979
Experimental: as §1

[5] = test system: Trichosporon asahi FP2044
Experimental: as §1

[6] = test system: Aspergillus terreus SR0174
Experimental: as §1

[7] = test system: Candida guilliermondii FP2086
Experimental: as §1

[8] = test system: Alternaria alternata AHU9258
Experimental: as §1

[9] = test system: Rhizopus oryzae FP1988
Experimental: as §1

[10] = test system: Fusarium solani FP1930
Experimental: as §1

[11] = test system: Trichophyton mentagrophytes FP2103
Experimental: as §1

[12] = test system: Cryptococcus neoformans FP1739
Experimental: as §1

[13] = test system: Trichophyton rubrum FP596
Experimental: as §1

[14] = test system: Pseudallescheria boydii FP1987
Experimental: as §1

[15] = test system: Candida parapsilosis FP1980
Experimental: as §1

[16] = test system: Aspergillus fumigatus FP1305
Experimental: as §1

Compound: CC(=O)N(O)CCCC1NC(=O)C(CCCN(O)C(C)=O)NC(=O)C(Cc2ccccc2)NC(=O)C(CC(C)C)NC(=O)C(CC(N)=O)NC(=O)C(CCCN(O)C(C)=O)NC1=O (stereo not shown) [compound B] (cyclo([ξOrn(N(OH)Ac)][ξOrn(N(OH)Ac)][ξOrn(N(OH)Ac)]NLF); configuration not given here)
- MEC (minimum effective concentration) [1]: 0.2 µg/mL
- MEC (minimum effective concentration) [2]: 0.31 µg/mL
- MEC (minimum effective concentration) [3]: 0.78 µg/mL
- MEC (minimum effective concentration) [4]: 0.31 µg/mL
- MEC (minimum effective concentration) [5]: 0.2 µg/mL
- MEC (minimum effective concentration) [6]: 0.31 µg/mL
- MEC (minimum effective concentration) [7]: 0.31 µg/mL
- MEC (minimum effective concentration) [8]: 0.1 µg/mL
- MEC (minimum effective concentration) [9]: 25 µg/mL
- MEC (minimum effective concentration) [10]: 0.2 µg/mL
- MEC (minimum effective concentration) [11]: 0.78 µg/mL
- MEC (minimum effective concentration) [12]: 0.2 µg/mL
- MEC (minimum effective concentration) [13]: 1.25 µg/mL
- MEC (minimum effective concentration) [14]: 0.2 µg/mL
- MEC (minimum effective concentration) [15]: 0.39 µg/mL
- MEC (minimum effective concentration) [16]: 0.31 µg/mL
